Data: doi:10.1101/2025.07.30.663779v2 (biorxiv, 2025)
pKd: −log10 of the molar value.

Key:
[1] = biological target: αCD40-mSAs; test: fluorescence polarization titration; assay type: binding; details: PBS; 20 nM biotin-FITC (Millipore-Sigma cat. 53608); labelled compound
[2] = biological target: recombinant streptavidin (Streptomyces avidinii, UniProt P22629); test: fluorescence polarization titration; assay type: binding; details: PBS; 20 nM biotin-FITC (Millipore-Sigma cat. 53608); labelled compound

pKd [1]: 7.16
pKd [2]: 7.69
Substance: biotin-FITC
